From patent US20040002441A1, “Recombination modulators and methods for producing and using the same” (priority 2000, published 2004)
“And” between values parts separate entries of the source, which are not always exact repeats. Equal entries are not always repeated. “Also recorded” adds a separate entry of the source. Where no end group is shown, it is not given here.

Experiments:
[1] = biological target: T1, Vaccinia topoisomerase (type Ib) (Vaccinia virus, UniProt P68698); experiment: biochemical; type: biochemical; settings: for IC50: IC50 for DNA cleavage (covalent adduct formation)
T1 construct: made in house; host or cells: Escherichia coli BL21 infected with bacteriophage λCE6

[2] = biological target: T2, bacteriophage λ Integrase (Int) (Escherichia phage lambda, UniProt P03700); experiment: Int-mediated bent-L recombination; type: biochemical; settings: for rank of potency at inhibiting recombination among individual peptides: FIG. 6A
T2 sequence (P03700 1-356): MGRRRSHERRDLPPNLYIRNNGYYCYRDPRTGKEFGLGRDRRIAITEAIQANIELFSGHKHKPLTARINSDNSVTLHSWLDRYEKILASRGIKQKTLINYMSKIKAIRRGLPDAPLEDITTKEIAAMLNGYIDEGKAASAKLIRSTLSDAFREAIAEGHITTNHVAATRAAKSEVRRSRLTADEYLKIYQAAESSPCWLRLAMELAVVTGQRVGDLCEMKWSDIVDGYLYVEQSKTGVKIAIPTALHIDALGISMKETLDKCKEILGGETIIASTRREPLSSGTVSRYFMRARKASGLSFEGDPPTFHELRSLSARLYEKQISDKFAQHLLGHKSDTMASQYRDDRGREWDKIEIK
T2 sequence (P0A6X7 1-99 partner): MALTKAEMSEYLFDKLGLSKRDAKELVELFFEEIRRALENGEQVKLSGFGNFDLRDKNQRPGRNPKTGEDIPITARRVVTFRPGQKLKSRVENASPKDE
T2 sequence (P0A6Y1 1-94 partner): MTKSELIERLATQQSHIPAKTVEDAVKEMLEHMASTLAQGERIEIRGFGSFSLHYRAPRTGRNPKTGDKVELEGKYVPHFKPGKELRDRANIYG
Description: Recombination Assays. Recombination assays were performed as described (Segall, 1998). Briefly, reactions were performed in a total volume of 10 μl and typically contained 1 nM radiolabeled att site as specified, 4 nM unlabeled att site, 50 ng salmon sperm DNA as nonspecific competitor, 44 mM Tris-Cl (pH 8.0), 60 mM KCl, 0.05 mg/ml bovine serum albumin, 7-11 mM Tris borate (pH 8.9), 5 mM spermidine, 1.3 mM EDTA, and 14.6% v/v glycerol. Int and IHF were present at 55 nM and 35 nM final concentrations respectively. During screening, peptide libraries were incubated with Int on ice for 20 minutes (in the same buffer), and the mix was then added to the rest of the recombination reaction. Final concentrations of peptides are specified for each experiment. Reactions were incubated for 60-90 minutes at 30° C. or 37° C., were stopped with 0.2× volume of 2% SDS, layered onto 5% polyacrylamide Tris/SDS gels, and electrophoresed in 1× Tris Tricine SDS buffer at 100 mA (Segall, 1998). Dried gels were visualized and quantitated using a Molecular Dynamics PhosphorImager.
Int Assays. Site-specific recombination and gel mobility shift assays were performed as described (Segall, 1998). Briefly, reactions were performed in a total volume of 10 or 20 μl and typically contained 1-2 nM radiolabeled att site as specified, 4 nM unlabeled att site, 100-300 ng salmon sperm DNA as nonspecific competitor, 44 mM Tris-Ci (pH 8.0), 60 mM KCl, 0.05 mg/ml bovine serum albumin, 7 mM Tris borate (pH 8.9), 5 mM spermidine, 1.3 mM EDTA, and 14.6% v/v glycerol. Any deviation from this formulation is noted in the figure legends. Gel shift reactions were incubated for 90 minutes at 37° C., layered without loading dyes onto 5% native polyacrylamide gel (29 acrylamide: 1 bis-acrylamide) and electrophoresed in 0.5× Tris borate EDTA buffer. Recombination reactions were stopped with 0.2× volume of 2% SDS, layered onto 5% polyacrylamide Tris/SDS gels, and electrophoresed in 1× Tris Tricine SDS buffer at 100 mA (Segall, 1998). Dried gels were visualized and quantitated using a Molecular Dynamics PhosphorImager. […]

[3] = biological target: T3, bacteriophage P1 Cre protein (Escherichia phage P1, UniProt P06956); experiment: Cre-mediated recombination between two lox site substrates; type: biochemical
T3 sequence (P06956 1-343): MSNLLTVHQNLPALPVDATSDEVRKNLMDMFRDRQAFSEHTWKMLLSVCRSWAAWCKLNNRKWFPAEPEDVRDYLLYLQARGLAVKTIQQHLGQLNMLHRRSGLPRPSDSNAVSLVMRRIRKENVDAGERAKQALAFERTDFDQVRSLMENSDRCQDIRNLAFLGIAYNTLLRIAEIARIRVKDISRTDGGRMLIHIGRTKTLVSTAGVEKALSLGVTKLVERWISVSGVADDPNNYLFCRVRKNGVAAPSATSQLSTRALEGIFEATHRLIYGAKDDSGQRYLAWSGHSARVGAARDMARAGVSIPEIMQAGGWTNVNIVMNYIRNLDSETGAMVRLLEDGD
Text: In order to test the specificity of peptide inhibition, we determined whether peptide KWWCRW affects the activity of a relative of the Int recombinase, namely the bacteriophage P1 Cre protein. Indeed, the peptide inhibits Cre-mediated recombination between two lox site substrates (Cassell and Segall, unpublished results).

[4] = biological target: T1, Vaccinia topoisomerase (type Ib); experiment: biochemical; settings: for IC50: IC50 for plasmid relaxation (activity reduced by one-half), pUC19 DNA
[5] = IC50, inhibition of bent-L recombination, bent-L pathway

| Substance | effect on rate of transesterification [1] | inhibition of covalent adduct formation [1] | reduction of covalent adduct formation [1] | IC50 [1] | inhibition at 0.7 µM ([1]; read-out: inhibition of cleavage) | effect on recombination ([2]; 1 μM peptide) | effect on recombination ([2]; 10 μM peptide) | IC50 [2, 5] | rank of potency at inhibiting recombination among individual peptides ([2]; dose response curves) | effect on Cre-mediated recombination [3] | IC50 [4] | effect on transesterification (DNA cleavage) [1] | EC50 [2] | effect on recombination ([2]; 100 μM, the highest peptide concentration tested) | IC50 ([2]; IC50, accumulation of Holliday junctions, bent-L pathway) | peptide concentration at which the most HJs accumulate ([2]; bent-L pathway) | rank of potency at causing the accumulation of HJs among individual peptides ([2]; dose response curves, FIG. 6B) | accumulation of Holliday junctions in Cre-mediated recombination [3] | effect on DNA relaxation ([4]; peptide concentrations up to 42 μM) |
| --- | --- | --- | --- | --- | --- | --- | --- | --- | --- | --- | --- | --- | --- | --- | --- | --- | --- | --- | --- |
| KWWCRW-NH2 [Peptide 59, KWWCRW] | slowed the rate of transesterification | 99% | 90% | ~500 nM and 500 nM | 40% | almost complete block on recombination | inhibited completely | < 100 nM and 20 nM | most potent at inhibiting recombination | inhibit | 3500 nM | – | – | – | – | – | – | – | – |
| KWWWRW-NH2 [Peptide 56, KWWWRW] | slowed the rate of transesterification | 99% | – | ~500 nM | – | – | – | ~40 nM | most potent at inhibiting recombination | inhibit | 3000 to 4000 nM | – | – | – | – | – | – | – | – |
| WKHYNY-NH2 [Peptide 52, WKHYNY] | – | – | – | – | – | – | – | – | – | – | – | did not inhibit transesterification; also recorded: do not inhibit cleavage | 200 to 400 nM | does not inhibit it completely; also recorded: does not inhibit recombination completely | 200 nM | about 2 μM | most potent at causing the accumulation of HJs | does cause accumulation of Holliday junctions | no effect |
